{"source": "ChEMBL document CHEMBL5375999", "about": "“Discovery of a Dual Tubulin and Neuropilin-1 (NRP1) Inhibitor with Potent In Vivo Anti-Tumor Activity via Pharmacophore-based Docking Screening, Structure Optimization, and Biological Evaluation” (J Med Chem, 2023)", "key": {"[1]": {"target": "Vascular endothelial growth factor receptor 3 (Homo sapiens, UniProt P35916)", "assay": "Inhibition of VEGFR3 (unknown origin)"}, "[2]": {"target": "RAC-alpha serine/threonine-protein kinase (Homo sapiens, UniProt P31749)", "sequence (P31749 whole entry)": "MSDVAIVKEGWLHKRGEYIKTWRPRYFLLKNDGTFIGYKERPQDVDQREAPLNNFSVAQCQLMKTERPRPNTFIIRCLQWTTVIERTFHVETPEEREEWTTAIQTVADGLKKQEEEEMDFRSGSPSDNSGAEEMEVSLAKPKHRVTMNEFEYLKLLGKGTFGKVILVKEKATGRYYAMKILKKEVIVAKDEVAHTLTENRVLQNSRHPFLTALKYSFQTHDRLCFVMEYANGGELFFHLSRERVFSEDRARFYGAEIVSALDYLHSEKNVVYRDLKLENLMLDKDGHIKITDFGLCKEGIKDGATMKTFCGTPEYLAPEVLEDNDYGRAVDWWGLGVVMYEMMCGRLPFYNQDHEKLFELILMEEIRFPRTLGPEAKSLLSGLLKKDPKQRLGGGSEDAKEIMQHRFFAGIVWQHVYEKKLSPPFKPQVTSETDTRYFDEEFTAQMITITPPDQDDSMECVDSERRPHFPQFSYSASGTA", "assay": "Inhibition of AKT1 (unknown origin)"}, "[3]": {"target": "RAC-beta serine/threonine-protein kinase (Homo sapiens, UniProt P31751)", "sequence (P31751 whole entry)": "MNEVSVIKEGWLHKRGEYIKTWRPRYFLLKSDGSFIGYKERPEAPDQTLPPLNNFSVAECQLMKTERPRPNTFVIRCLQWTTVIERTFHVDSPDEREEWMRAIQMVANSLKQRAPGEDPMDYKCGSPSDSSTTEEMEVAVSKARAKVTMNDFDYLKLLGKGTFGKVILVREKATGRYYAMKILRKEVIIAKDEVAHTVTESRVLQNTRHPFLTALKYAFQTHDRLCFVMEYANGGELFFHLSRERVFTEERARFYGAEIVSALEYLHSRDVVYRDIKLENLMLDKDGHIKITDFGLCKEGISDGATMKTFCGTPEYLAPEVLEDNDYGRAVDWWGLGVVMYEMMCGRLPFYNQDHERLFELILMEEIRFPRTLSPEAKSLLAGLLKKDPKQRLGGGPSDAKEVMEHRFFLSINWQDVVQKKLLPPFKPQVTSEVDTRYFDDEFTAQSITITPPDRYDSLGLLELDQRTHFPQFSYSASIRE", "assay": "Inhibition of AKT2 (unknown origin)"}, "[4]": {"target": "Tyrosine-protein kinase Blk (Homo sapiens, UniProt P51451)", "assay": "Inhibition of BLK (unknown origin)"}, "[5]": {"target": "Cyclin-dependent kinase 3 (Homo sapiens, UniProt Q00526)", "assay": "Inhibition of CDK3 (unknown origin)"}, "[6]": {"target": "Cyclin-dependent kinase 7 (Homo sapiens, UniProt P50613)", "assay": "Inhibition of CDK7 (unknown origin)"}, "[7]": {"target": "Cyclin-dependent kinase 8 (Homo sapiens, UniProt P49336)", "assay": "Inhibition of CDK8 (unknown origin)"}, "[8]": {"target": "Mitogen-activated protein kinase kinase kinase 20 (Homo sapiens, UniProt Q9NYL2)", "sequence (Q9NYL2 whole entry)": "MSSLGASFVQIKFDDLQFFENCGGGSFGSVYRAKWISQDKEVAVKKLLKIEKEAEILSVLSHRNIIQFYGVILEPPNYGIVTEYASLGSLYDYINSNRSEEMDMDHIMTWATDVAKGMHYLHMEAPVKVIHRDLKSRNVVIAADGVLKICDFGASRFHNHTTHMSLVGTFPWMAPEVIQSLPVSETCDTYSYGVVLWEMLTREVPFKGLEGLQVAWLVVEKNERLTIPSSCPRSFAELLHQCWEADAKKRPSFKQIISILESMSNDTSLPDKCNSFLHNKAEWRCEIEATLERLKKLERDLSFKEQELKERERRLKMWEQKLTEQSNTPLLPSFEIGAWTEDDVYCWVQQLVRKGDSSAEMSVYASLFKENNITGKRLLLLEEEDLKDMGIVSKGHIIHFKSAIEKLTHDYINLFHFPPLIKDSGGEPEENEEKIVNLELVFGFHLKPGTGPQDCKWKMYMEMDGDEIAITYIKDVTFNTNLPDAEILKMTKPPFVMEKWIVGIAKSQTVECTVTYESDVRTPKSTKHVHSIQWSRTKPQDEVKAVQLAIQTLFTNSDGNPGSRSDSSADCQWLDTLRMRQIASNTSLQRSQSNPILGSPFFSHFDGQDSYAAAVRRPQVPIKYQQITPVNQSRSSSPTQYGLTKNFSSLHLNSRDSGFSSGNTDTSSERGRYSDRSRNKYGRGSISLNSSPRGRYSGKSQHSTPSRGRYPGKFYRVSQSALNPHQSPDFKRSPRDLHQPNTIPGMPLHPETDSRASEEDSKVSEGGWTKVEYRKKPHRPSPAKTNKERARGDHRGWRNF", "assay": "Inhibition of ZAK (unknown origin)"}, "[9]": {"target": "Cyclin-dependent kinase 9 (Homo sapiens, UniProt P50750)", "sequence (P50750 whole entry)": "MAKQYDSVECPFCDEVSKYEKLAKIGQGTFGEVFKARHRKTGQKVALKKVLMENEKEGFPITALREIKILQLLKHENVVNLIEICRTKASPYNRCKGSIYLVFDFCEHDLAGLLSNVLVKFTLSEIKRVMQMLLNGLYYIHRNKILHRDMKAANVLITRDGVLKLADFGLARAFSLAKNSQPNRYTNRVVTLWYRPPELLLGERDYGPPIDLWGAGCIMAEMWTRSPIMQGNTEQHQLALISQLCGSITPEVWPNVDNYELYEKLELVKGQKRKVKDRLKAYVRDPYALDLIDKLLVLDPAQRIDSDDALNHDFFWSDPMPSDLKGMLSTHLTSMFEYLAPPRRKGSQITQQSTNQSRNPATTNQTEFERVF", "assay": "Inhibition of CDK9 (unknown origin)"}, "[10]": {"target": "Mitogen-activated protein kinase 3 (Homo sapiens, UniProt P27361)", "sequence (P27361 whole entry)": "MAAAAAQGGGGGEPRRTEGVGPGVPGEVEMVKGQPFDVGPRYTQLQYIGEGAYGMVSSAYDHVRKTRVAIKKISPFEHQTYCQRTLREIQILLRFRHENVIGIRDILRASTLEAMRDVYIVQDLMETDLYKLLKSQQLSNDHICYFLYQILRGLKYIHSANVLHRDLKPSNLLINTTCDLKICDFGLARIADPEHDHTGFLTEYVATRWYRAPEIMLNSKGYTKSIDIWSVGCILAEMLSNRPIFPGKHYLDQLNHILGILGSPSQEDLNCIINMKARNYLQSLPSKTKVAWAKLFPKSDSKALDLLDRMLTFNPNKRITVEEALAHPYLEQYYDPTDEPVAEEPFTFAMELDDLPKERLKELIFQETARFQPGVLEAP", "assay": "Inhibition of ERK1 (unknown origin)"}, "[11]": {"target": "Tyrosine-protein kinase Fgr (Homo sapiens, UniProt P09769)", "assay": "Inhibition of FGR (unknown origin)"}, "[12]": {"target": "Serine/threonine-protein kinase ICK (Homo sapiens, UniProt Q9UPZ9)", "sequence (Q9UPZ9 whole entry)": "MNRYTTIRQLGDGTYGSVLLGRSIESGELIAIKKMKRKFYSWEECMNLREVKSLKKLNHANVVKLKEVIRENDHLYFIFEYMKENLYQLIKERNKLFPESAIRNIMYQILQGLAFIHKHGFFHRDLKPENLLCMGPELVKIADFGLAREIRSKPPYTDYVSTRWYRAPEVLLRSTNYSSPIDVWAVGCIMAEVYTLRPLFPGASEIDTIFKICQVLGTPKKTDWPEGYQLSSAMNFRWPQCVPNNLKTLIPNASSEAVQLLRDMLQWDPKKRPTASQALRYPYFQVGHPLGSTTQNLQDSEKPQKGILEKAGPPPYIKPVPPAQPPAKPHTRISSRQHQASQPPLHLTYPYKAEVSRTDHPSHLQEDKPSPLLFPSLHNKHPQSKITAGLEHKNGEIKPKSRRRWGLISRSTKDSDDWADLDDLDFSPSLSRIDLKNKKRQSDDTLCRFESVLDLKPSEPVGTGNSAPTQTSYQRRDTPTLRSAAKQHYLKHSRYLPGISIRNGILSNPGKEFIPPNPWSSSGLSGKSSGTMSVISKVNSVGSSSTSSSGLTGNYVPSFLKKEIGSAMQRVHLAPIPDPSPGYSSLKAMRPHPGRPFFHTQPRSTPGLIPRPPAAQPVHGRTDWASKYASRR", "assay": "Inhibition of ICK (unknown origin)"}, "[13]": {"target": "Hepatocyte growth factor receptor (Homo sapiens, UniProt P08581)", "assay": "Inhibition of MET (unknown origin)"}, "[14]": {"target": "Serine/threonine-protein kinase 38 (Homo sapiens, UniProt Q15208)", "sequence (Q15208 whole entry)": "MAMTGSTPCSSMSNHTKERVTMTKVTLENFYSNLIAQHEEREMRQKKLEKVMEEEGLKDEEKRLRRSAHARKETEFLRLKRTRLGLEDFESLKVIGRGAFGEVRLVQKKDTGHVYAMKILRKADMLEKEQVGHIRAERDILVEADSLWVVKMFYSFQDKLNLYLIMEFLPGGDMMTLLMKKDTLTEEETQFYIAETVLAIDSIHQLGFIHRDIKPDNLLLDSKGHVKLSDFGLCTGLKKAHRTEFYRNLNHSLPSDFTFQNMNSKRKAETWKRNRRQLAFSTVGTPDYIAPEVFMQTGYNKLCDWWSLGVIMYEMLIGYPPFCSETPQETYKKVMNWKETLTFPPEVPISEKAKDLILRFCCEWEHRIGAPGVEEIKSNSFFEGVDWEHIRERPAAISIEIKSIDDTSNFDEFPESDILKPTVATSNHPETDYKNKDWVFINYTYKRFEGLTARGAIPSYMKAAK", "assay": "Inhibition of NDR1 (unknown origin)"}, "[15]": {"target": "Phosphatidylinositol 4,5-bisphosphate 3-kinase catalytic subunit alpha isoform (Homo sapiens, UniProt P42336)", "assay": "Inhibition of PIK3CA (unknown origin)"}, "Tubulin (Homo sapiens) [16]": {"target": "T1, Tubulin (Homo sapiens) (UniProt P68371+Q9H4B7+P0DPH7+P68366+Q13509+Q71U36+P04350+Q3ZCM7+P07437+P68363+Q9BQE3+Q6PEY2+Q13885+Q9BVA1+Q9BUF5)", "assay": "Inhibition of tubulin polymerization in human PC-3 cells assessed as increase in nuclear disruption incubated for 48 hrs by immunofluorescence assay", "format": "cell-based", "settings": "dose 0.1-12.5 µM"}, "Tubulin (Homo sapiens) [17]": {"target": "T1, Tubulin (Homo sapiens)", "assay": "Inhibition of tubulin polymerization in human PC-3 cells assessed as increase in microtubule dispersion incubated for 48 hrs by immunofluorescence assay", "format": "cell-based", "settings": "dose 0.1-12.5 µM"}, "Tubulin (Homo sapiens) [18]": {"target": "T1, Tubulin (Homo sapiens)", "assay": "Inhibition of tubulin polymerization in human PC-3 cells assessed as nucleus disappearance at 2.5 to 12.5 uM incubated for 48 hrs by immunofluorescence assay", "format": "cell-based", "settings": "dose 2.5-12.5 µM"}, "VCaP": {"test_system": "VCaP", "assay": "Cytotoxicity against human VCaP cells assessed as inhibition of cell viability incubated for 48 hrs by MTT assay", "format": "functional, cell-based"}, "PC-3M": {"test_system": "PC-3M", "assay": "Cytotoxicity against human PC-3M cells assessed as inhibition of cell viability incubated for 48 hrs by MTT assay", "format": "functional, cell-based"}, "PC-3 [19]": {"test_system": "PC-3", "assay": "Induction of cell cycle arrest in human PC-3 cells assessed as G0/G1 phase cells at 0.1 uM by flow cytometry analysis (reference value: 94.76%)", "format": "functional"}, "PC-3 [20]": {"test_system": "PC-3", "assay": "Induction of cell cycle arrest in human PC-3 cells assessed as G0/G1 phase cells at 0.5 uM by flow cytometry analysis (reference value: 94.76%)", "format": "functional"}, "PC-3 [21]": {"test_system": "PC-3", "assay": "Induction of cell cycle arrest in human PC-3 cells assessed as S phase cells at 0.5 uM by flow cytometry analysis (reference value: 2%)", "format": "functional"}, "PC-3 [22]": {"test_system": "PC-3", "assay": "Induction of cell cycle arrest in human PC-3 cells assessed as increase in p-cdc2 expression at 0.5 to 12.5 uM incubated for 48 hrs by Western blotting analysis", "format": "functional, cell-based", "settings": "dose 0.5-12.5 µM"}, "PC-3 [23]": {"test_system": "PC-3", "assay": "Induction of cell cycle arrest in human PC-3 cells assessed as decrease in cyclin-B1 expression at 0.5 to 12.5 uM incubated for 48 hrs by Western blotting analysis", "format": "functional, cell-based", "settings": "dose 0.5-12.5 µM"}, "PC-3 [24]": {"test_system": "PC-3", "assay": "Induction of apoptosis in human PC-3 cells assessed as viable cells at 0.1 uM by Annexin-V FITC staining based flow cytometry analysis (reference value: 96.8%)", "format": "functional", "settings": "read-out: Activity"}, "PC-3 [25]": {"test_system": "PC-3", "assay": "Induction of apoptosis in human PC-3 cells assessed as necrotic cells at 0.1 uM by Annexin-V FITC staining based flow cytometry analysis (reference value: 0.059%)", "format": "functional"}, "PC-3 [26]": {"test_system": "PC-3", "assay": "Induction of apoptosis in human PC-3 cells assessed as early apoptotic cells at 2.5 uM by Annexin-V FITC staining based flow cytometry analysis (reference value: 1.51%)", "format": "functional"}, "PC-3 [27]": {"test_system": "PC-3", "assay": "Induction of apoptosis in human PC-3 cells assessed as late apoptotic cells at 2.5 uM by Annexin-V FITC staining based flow cytometry analysis (reference value: 1.67%)", "format": "functional"}, "PC-3 [28]": {"test_system": "PC-3", "assay": "Induction of apoptosis in human PC-3 cells assessed as early apoptotic cells at 12.5 uM by Annexin-V FITC staining based flow cytometry analysis (reference value: 1.51%)", "format": "functional"}, "PC-3 [29]": {"test_system": "PC-3", "assay": "Induction of apoptosis in human PC-3 cells assessed as increase in cleaved caspase-3 expression at 0.5 to 12.5 uM incubated for 48 hrs by Western blotting analysis", "format": "functional, cell-based", "settings": "dose 0.5-12.5 µM"}, "PC-3 [30]": {"test_system": "PC-3", "assay": "Antiangiogenesis activity in human PC-3 cells assessed as inhibition of tube formation incubated for 8 to 15 hrs by matrigel based inverted microscopic analysis", "format": "functional, cell-based", "settings": "dose 0.1-12.5 µM, time 8-15 hrs"}, "PC-3 [31]": {"test_system": "PC-3", "assay": "Antiangiogenesis activity in human PC-3 cells assessed as appearance of scattered cells at 0.1 to 12.5 uM incubated for 8 to 15 hrs by matrigel based inverted microscopic analysis", "format": "functional, cell-based", "settings": "dose 0.1-12.5 µM, time 8-15 hrs"}, "HUVEC": {"test_system": "HUVEC", "assay": "Antimigratory activity against HUVECs at 0.1 to 12.5 uM incubated for 24 to 48 hrs by wound healing assay", "format": "functional, cell-based", "settings": "Homo sapiens, dose 0.1-12.5 µM, time 24-48 hrs"}, "[32]": {"target": "T2, Vascular endothelial growth factor receptor 2 (Homo sapiens, UniProt P35968)", "T2 sequence (P35968 whole entry)": "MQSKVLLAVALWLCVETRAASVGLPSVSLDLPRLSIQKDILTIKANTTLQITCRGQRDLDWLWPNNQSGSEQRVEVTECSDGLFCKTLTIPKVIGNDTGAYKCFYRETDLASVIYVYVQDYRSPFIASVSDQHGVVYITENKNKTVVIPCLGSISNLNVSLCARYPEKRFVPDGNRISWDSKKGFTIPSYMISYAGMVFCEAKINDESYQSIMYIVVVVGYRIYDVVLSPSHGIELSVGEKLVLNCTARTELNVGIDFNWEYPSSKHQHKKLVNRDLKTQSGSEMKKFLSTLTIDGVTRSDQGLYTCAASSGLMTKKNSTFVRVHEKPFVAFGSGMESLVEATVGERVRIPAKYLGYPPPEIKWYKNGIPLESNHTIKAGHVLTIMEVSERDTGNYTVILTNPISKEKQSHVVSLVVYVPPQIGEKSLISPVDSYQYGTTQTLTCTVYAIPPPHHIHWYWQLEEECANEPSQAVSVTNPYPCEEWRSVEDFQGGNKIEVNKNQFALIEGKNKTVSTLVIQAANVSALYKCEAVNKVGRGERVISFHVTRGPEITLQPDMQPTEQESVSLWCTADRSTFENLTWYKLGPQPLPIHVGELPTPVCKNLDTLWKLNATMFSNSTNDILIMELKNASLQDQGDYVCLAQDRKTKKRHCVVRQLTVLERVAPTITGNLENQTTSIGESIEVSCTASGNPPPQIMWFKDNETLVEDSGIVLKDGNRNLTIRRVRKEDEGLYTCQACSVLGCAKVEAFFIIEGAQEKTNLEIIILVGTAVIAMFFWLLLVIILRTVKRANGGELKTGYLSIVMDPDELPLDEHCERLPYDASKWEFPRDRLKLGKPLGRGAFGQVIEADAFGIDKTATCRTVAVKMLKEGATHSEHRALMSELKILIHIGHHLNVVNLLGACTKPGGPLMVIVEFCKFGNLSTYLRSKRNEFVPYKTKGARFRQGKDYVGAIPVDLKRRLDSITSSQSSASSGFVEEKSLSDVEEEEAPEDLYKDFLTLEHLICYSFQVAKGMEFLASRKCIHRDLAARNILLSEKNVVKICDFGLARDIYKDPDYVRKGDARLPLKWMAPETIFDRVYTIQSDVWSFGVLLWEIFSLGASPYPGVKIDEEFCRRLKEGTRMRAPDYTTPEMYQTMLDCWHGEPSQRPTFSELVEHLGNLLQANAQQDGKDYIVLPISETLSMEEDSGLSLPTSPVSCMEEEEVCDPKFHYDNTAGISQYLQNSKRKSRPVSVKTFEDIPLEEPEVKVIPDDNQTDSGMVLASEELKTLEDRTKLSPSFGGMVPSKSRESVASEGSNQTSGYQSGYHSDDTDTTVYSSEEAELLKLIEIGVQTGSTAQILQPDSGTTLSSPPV", "assay": "Inhibition of VEGF-induced VEGFR2 signal pathway in HUVECs assessed as reduction in p-VEGFR2 level", "format": "cell-based", "settings": "HUVEC, dose 0.1-12.5 µM"}, "[33]": {"target": "T2, Vascular endothelial growth factor receptor 2", "assay": "Inhibition of VEGF-induced VEGFR2 signal pathway in HUVECs assessed as reduction in p-VEGFR2 level at 12.5 uM relative to control", "format": "cell-based", "settings": "HUVEC"}, "PC-3 [34]": {"test_system": "PC-3", "assay": "Antitumor activity against human PC-3 cells xenografted in BALB/c nude mouse assessed as reduction in tumor weight at 5 to 10 mg/kg, ip administered every 4 days for 20 days", "format": "functional, organism-based", "settings": "dose 5-10 mg/kg, time 20.0 day"}, "[35]": {"assay": "Toxicity in BALB/c mouse xenografted with human PC-3 cells assessed as change in lung morphology at 5 to 10 mg/kg, ip administered every 4 days for 20 days by H and E staining based inverted microscopic assay", "format": "organism-based", "settings": "in vivo, 480 h, dose 5-10 mg/kg, time 20 day"}, "[36]": {"assay": "Tmax in Sprague-Dawley rat at 1.5 mg/kg, po measured upto 24 hrs by LC-MS/MS analysis", "format": "ADME, organism-based", "settings": "in vivo"}}, "note": "The source made the active and inactive calls. The rule behind the calls is not given here.", "data": [{"smiles": "COc1ccc(/C=C\\c2cc(OC)c(OC)c(OC)c2)cc1NC(=O)CCC(=O)N[C@@H](CCCNC(=N)N)C(=O)O", "values": [{"measurement": "IC50", "setting": "[1]", "result": "> 10", "unit": "µM"}, {"measurement": "IC50", "setting": "[2]", "result": "> 10", "unit": "µM"}, {"measurement": "IC50", "setting": "[3]", "result": "> 10", "unit": "µM"}, {"measurement": "IC50", "setting": "[4]", "result": "> 10", "unit": "µM"}, {"measurement": "IC50", "setting": "[5]", "result": "> 10", "unit": "µM"}, {"measurement": "IC50", "setting": "[6]", "result": "> 10", "unit": "µM"}, {"measurement": "IC50", "setting": "[7]", "result": "> 10", "unit": "µM"}, {"measurement": "IC50", "setting": "[8]", "result": "> 10", "unit": "µM"}, {"measurement": "IC50", "setting": "[9]", "result": "> 10", "unit": "µM"}, {"measurement": "IC50", "setting": "[10]", "result": "> 10", "unit": "µM"}, {"measurement": "IC50", "setting": "[11]", "result": "> 10", "unit": "µM"}, {"measurement": "IC50", "setting": "[12]", "result": "> 10", "unit": "µM"}, {"measurement": "IC50", "setting": "[13]", "result": "> 10", "unit": "µM"}, {"measurement": "IC50", "setting": "[14]", "result": "> 10", "unit": "µM"}, {"measurement": "IC50", "setting": "[15]", "result": "> 10", "unit": "µM"}, {"measurement": "inhibition", "setting": "Tubulin (Homo sapiens) [16]", "result": "Dose-Dependent Effect"}, {"measurement": "inhibition", "setting": "Tubulin (Homo sapiens) [17]", "result": "Dose-Dependent Effect"}, {"measurement": "inhibition", "setting": "Tubulin (Homo sapiens) [18]", "result": "Active"}, {"measurement": "Activity", "setting": "VCaP", "result": "Active"}, {"measurement": "Activity", "setting": "PC-3M", "result": "Active"}, {"measurement": "Activity", "setting": "PC-3 [19]", "result": 93.57, "unit": "%"}, {"measurement": "Activity", "setting": "PC-3 [20]", "result": 85.03, "unit": "%"}, {"measurement": "Activity", "setting": "PC-3 [21]", "result": 6.01, "unit": "%"}, {"measurement": "Activity", "setting": "PC-3 [22]", "result": "Active"}, {"measurement": "Activity", "setting": "PC-3 [23]", "result": "Active"}, {"measurement": "viability at 0.1 µM", "setting": "PC-3 [24]", "result": 93.6, "unit": "%"}, {"measurement": "Activity", "setting": "PC-3 [25]", "result": 0.064, "unit": "%"}, {"measurement": "Activity", "setting": "PC-3 [26]", "result": 3.63, "unit": "%"}, {"measurement": "Activity", "setting": "PC-3 [27]", "result": 5.6, "unit": "%"}, {"measurement": "Activity", "setting": "PC-3 [28]", "result": 4.55, "unit": "%"}, {"measurement": "Activity", "setting": "PC-3 [29]", "result": "Active"}, {"measurement": "Activity", "setting": "PC-3 [30]", "result": "Dose-Dependent Effect"}, {"measurement": "Activity", "setting": "PC-3 [31]", "result": "Active"}, {"measurement": "Activity", "setting": "HUVEC", "result": "Active"}, {"measurement": "inhibition", "setting": "[32]", "result": "Dose-Dependent Effect"}, {"measurement": "inhibition", "setting": "[33]", "result": 50, "unit": "%"}, {"measurement": "Activity", "setting": "PC-3 [34]", "result": "Active"}, {"measurement": "Activity", "setting": "[35]", "result": "Non-Toxic"}, {"measurement": "Tmax", "setting": "[36]", "result": 30, "unit": "min"}]}]}
